Data on 40 molecules can be found in US20210221784A1, “COMPOUNDS AND COMPOSITIONS FOR THE TREATMENT OF PAIN” (Université de Strasbourg, priority 2018, published 2021).

Broadly, the melting point is the temperature of the solid-liquid transition. Broadly, the Ki is the dissociation constant of the complex between target and ligand, obtained from inhibition or displacement. Usually IC50 stands for the point on the concentration scale where inhibition reaches its midpoint.

The structures appear in SMILES notation. Where only a bound is given, the exact number is not on record here.

Test system in one series: not given
Assay: not given
Conditions: not given
Molecule `COc1ccccc1-c1cnc(N)c(F)c1` [Compound 15, 3-Fluoro-5-(2-methoxy-phenyl)-pyridin-2-ylamine] had a melting point of 75 to 79 °C.

As to `Nc1ncc(-c2cccc(Cl)c2Cl)cc1F` [Compound 16, 5-(2,3-Dichloro-phenyl)-3-fluoro-pyridin-2-ylamine], the melting point is 130 to 136 °C.

On to `Cl.Nc1cc(OCC(F)(F)F)c(-c2cccc(Cl)c2Cl)cn1`, for which the melting point is > 250 °C.

With `Nc1ccc(-c2cccc(Cl)c2Cl)c(C(F)(F)F)n1` [Compound 34, 5-(2,3-Dichloro-phenyl)-6-trifluoromethyl-pyridin-2-ylamine], the melting point lay within 165 to 170 °C.

Take `COc1ccccc1-c1cnc(N)cc1OCCN.Cl`: the melting point was in the range of 218 to 224 °C.

Turning to `COc1ccccc1-c1ccc(N)nc1F` [Compound 32, 6-Fluoro-5-(2-methoxy-phenyl)-pyridin-2-ylamine], the melting point was in the range of 175 to 178 °C.

`Cc1n[nH]c(C)c1-c1ccc(N)nc1N` [Compound 90, 3-(3,5-dimethyl-1H-pyrazol-4-yl)pyridine-2,6-diamine]: the melting point is > 250 °C.

Turning to `COc1ccccc1-c1ccc(N)nc1OCCN` [Compound 37, 6-(2-Amino-ethoxy)-5-(2-methoxy-phenyl)-pyridin-2-ylamine], the melting point fell in the range of 197 to 203 °C.

In the case of `COc1ccccc1-c1cnc(N)c(C)c1` [Compound 13, 5-(2-Methoxy-phenyl)-3-methyl-pyridin-2-ylamine], the melting point was 92 to 95 °C.

For `COc1cc(N)ncc1-c1cccc(Cl)c1Cl.Cl`, the melting point was > 250 °C.

Molecule `Nc1ccc(-c2ccc(N)nc2N)cn1` [Compound 82, 3-(6-amino-3-pyridyl)pyridine-2,6-diamine] yielded a melting point of 220 to 240 °C.

Take `COc1ccccc1-c1cnc(N)cc1F` [Compound 18, 4-Fluoro-5-(2-methoxy-phenyl)-pyridin-2-ylamine]: the melting point lay within 65 to 70 °C.

`Cc1cc(N)nc(C)c1-c1cccc(Cl)c1Cl` [Compound 28, 5-(2,3-Dichloro-phenyl)-4,6-dimethyl-pyridin-2-ylamine] returned a melting point of 140 to 145 °C.

`Nc1ccc(-c2cccnc2F)c(N)n1` [Compound 87, 3-(2-fluoro-3-pyridyl)pyridine-2,6-diamine] displayed a melting point of 184 to 188 °C.

The molecule `COc1ccccc1-c1cnc(N)cc1C` [Compound 21, 5-(2-Methoxy-phenyl)-4-methyl-pyridin-2-ylamine] came in with a melting point of 85 to 88 °C.

The molecule `Cc1c(Cl)cccc1-c1cc(F)c(N)nc1N` [Compound 66, 3-(3-Chloro-2-methyl-phenyl)-5-fluoro-pyridine-2,6-diamine] returned a melting point of 128 to 135 °C.

`Nc1ccc(-c2cnc(N)c(C(F)(F)F)c2)c(N)n1` [Compound 83, 3-[6-amino-5-(trifluoromethyl)-3-pyridyl]pyridine-2,6-diamine]: the melting point was 154 to 155 °C.

On to `COc1ccccc1-c1cnc(N)cc1OC` [Compound 20, 4-Methoxy-5-(2-methoxy-phenyl)-pyridin-2-ylamine], for which the melting point lay within 140 to 144 °C.

`CN(C)c1ccc(-c2ccc(N)nc2N)c2ccccc12.Cl` yielded a melting point of 175 to 181 °C.

For `Nc1ccc(-c2ccc(N3CCCCC3)nc2)c(N)n1` [Compound 79, 3-[6-(1-piperidyl)-3-pyridyl]pyridine-2,6-diamine], the melting point lay within 155 to 159 °C.

`COc1ccccc1-c1cnc(N)c(C(F)(F)F)c1` [Compound 14, 5-(2-Methoxy-phenyl)-3-trifluoromethyl-pyridin-2-ylamine] registered a melting point of 63 to 67 °C.

In turn, `CC(=O)Nc1ccccc1-c1ccc(N)nc1N` [Compound 62, N-[2-(2,6-Diamino-pyridin-3-yl)-phenyl]-acetamide] came in with a melting point of 60 to 70 °C.

As for `Nc1cc(F)c(-c2cccc(Cl)c2Cl)cn1` [Compound 17, 5-(2,3-Dichloro-phenyl)-4-fluoro-pyridin-2-ylamine], the melting point is 107 to 112 °C.

Regarding `COc1ccccc1-c1cnc(N)cc1OCC(F)(F)F.Cl`, the melting point was 238 to 240 °C.

Molecule `CNc1ccc(-c2ccc(N)nc2N)cn1` [Compound 80, 3-[6-(methylamino)-3-pyridyl]pyridine-2,6-diamine] displayed a melting point of 178 to 182 °C.

In turn, `COc1ccccc1-c1ccc(N)nc1OC` [Compound 35, 6-Methoxy-5-(2-methoxy-phenyl)-pyridin-2-ylamine] gave a melting point of 85 to 87 °C.

The target of the next series is T1, hNPFFR1 (Homo sapiens, UniProt Q9GZQ6).
T1 construct: expressed in transfected cells; membranes
T1 sequence (Q9GZQ6 whole entry): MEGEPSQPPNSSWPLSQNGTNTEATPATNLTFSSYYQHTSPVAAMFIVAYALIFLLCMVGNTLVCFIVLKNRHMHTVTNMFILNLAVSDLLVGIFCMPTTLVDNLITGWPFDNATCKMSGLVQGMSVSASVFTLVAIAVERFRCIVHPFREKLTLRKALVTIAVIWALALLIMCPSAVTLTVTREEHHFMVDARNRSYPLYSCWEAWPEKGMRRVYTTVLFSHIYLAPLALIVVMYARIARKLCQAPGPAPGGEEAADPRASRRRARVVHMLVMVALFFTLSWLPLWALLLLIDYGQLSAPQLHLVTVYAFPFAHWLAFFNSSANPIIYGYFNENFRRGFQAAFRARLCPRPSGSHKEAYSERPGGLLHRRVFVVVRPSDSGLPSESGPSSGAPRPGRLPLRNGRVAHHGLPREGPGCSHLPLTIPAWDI
The series can be described thus: Radioligand binding competition, membranes from CHO cells expressing hNPFFR1. Particulars: 0.015 nM [D-Tyr1[125I], N-MePhe3]-NPFF, 1 hr at 25° C., read-out: NPFF1-R Ki. Here is the method: Competition experiments with membranes from CHO cells stably expressing hNPFFR1 and hNPFFR2 were performed essentially as described in Elhabazi, K., et al. Neuropharmacology, 2013. 75C, 164-171., Briefly, hNPFFR1 or hNPFFR2 membranes (5 to 10 μg of proteins) were incubated (1 hr at 25° C.; 0.25 mL total volume) with 0.015 nM [D-Tyr1[125I], N-MePhe3]-NPFF (Hartmann Analytic GmbH) in 50 mM HEPES (pH 7.4), 1 mM CaCl2, 1 mM MgCl2 and 0.1% bovine serum albumin. Non-specific binding was determined in the presence of 10 μM RFRP-3. Incubation was terminated by rapid filtration through a 96-well GF/B unifilter apparatus (Perkin Elmer Life and Analytical Sciences, Courtaboeuf, France). Unifilters were washed five times with binding buffer, then dried for 1 h at 65° C. After addition of 40 μL scintillation cocktail (Microscint-O, Perkin Elmer) per well, bound radioactivity was determined on a TopCount scintillation counter (Perkin Elmer).
On to `Nc1ccc(-c2ccccc2OC(F)(F)F)c(N)n1` [Compound 2c, 3-(2-(trifluoromethoxy)phenyl) pyridine-2,6-diamine], for which the Ki turned out to be 34 nM.

Consider `Nc1ccc(-c2cccnc2)c(N)n1` [Compound 3e, [3,3′-bipyridine]-2,6-diamine], for which the Ki came to 1930 nM.

Consider `Nc1ccc(-c2ccccc2)c(N)n1` [Compound 1a, 3-phenylpyridine-2,6-diamine], for which the inhibition constant (Ki) was determined as 188 nM.

As for `Nc1ccc(-c2ccncc2)c(N)n1` [Compound 3d, [3,4′-bipyridine]-2,6-diamine], the inhibitory constant (Ki) is 5390 nM.

In a further series the target is T2, human NPFFR1 (hNPFFR1) receptor (Homo sapiens, UniProt Q9GZQ6).
T2 construct: expressed in transfected cells; host or cells: HEK-293 T cells, transient co-transfection
T2 sequence (Q9GZQ6 whole entry): as above
Kind of series: Human NPFFR1 evaluation using BRET biosensors in HEK-293 T cells. The settings on record: hNPFFR1 in HEK-293 T cells, stimulated by EC80 RFRP-3, read-out: IC50 of antagonist activity. Format: cell-based. Here is the method:
Compounds of the present invention were tested successively for their agonist and antagonist activities on human NPFFR1 (hNPFFR1) receptor transiently over-expressed in HEK-293 T cells. Compounds exert agonist activity if, by themselves in absence of neuropeptide RFRP-3 (also named NPVF) they activate hNPFFR1; and they exert antagonist activity if they decrease the action of RFRP-3 on the receptor. The assay used to measure compound activity is based on BRET (Bioluminescence Resonance Energy Transfer) biosensors and is designed to monitor the plasma membrane translocation of protein that interacts with specific Ga subunit. The specific effector (luciferase tagged: BRET donor) recruited at the membrane will be in close proximity to a plasma membrane anchor (GFP tagged: BRET acceptor) to induce a BRET signal (Ramdan et al, 2006, Chapter 5, Current Protocols in Neuroscience).
HEK-293 T cells are maintained in Dulbecco's Modified Eagle's Medium supplemented with 10% Foetal Calf Serum, 1% Penicillin/Streptomycin at 37° C./5% CO2. Cells are co-transfected using polyethylenimine (25 kDa linear) with four DNA plasmids encoding; hNPFFR1, GαoB, a Gi family specific intracellular effector fused to luciferase (BRET donor), a plasma membrane effector fused to GFP (BRET acceptor). After transfection, cells are cultured for 48 h at 37° C./5% CO2.
Receptor activity is detected by changes in BRET signal.
On the day of the assay, cells are detached using trypsin 0.05%, resuspended in assay buffer (1.8 mM CaCl2, 1 mM MgCl2, 2.7 mM KCl, 137 mM NaCl, 0.4 mM NaH2PO4, 5.5 mM D-Glucose, 11.9 mM NaHCO3, 25 mM Hepes) and seeded in 384 well plate at a density of 20,000 cells per well. Then, plates are equilibrated 3.5 hours at 37° C. before adding compounds.
Compounds and luciferase substrate are added to the cells using an automated device (Freedom Evo®, Tecan) and BRET readings are collected on EnVision (PerkinElmer) with specific filters (410 nm BW 80 nm, 515 nm BW 30 nm).
Agonist and antagonist activities of compounds are consecutively evaluated on the same cell plate. Agonist activity is first measured after 10 minutes incubation with compound alone on the cells. Then, cells are stimulated by an EC80 RFRP-3 concentration and luminescence is recorded for additional 10 minutes. EC80 RFRP-3 concentration is the concentration giving 80% of the maximal RFRP-3 response. Agonist or antagonist activities are evaluated in comparison to basal signals evoked by assay buffer or EC80 RFRP-3 alone, respectively.
For IC50 determination, a dose-response test is performed using 20 concentrations (ranging over 6 logs) of each compound. Dose-response curves are fitted using the sigmoidal dose-response (variable slope) analysis in GraphPad Prism software (GraphPad Software) and IC50 of antagonist activity is calculated. Dose-response experiments are performed in duplicate, in two independent experiments.
(In general: BRET reads energy transfer from a luciferase to a nearby fluorophore.)
Take `Nc1ccc(-c2ccc(Cl)cc2OC2CCCC2)c(N)n1` [Compound 47, 3-(4-Chloro-2-cyclopentyloxy-phenyl)-pyridine-2,6-diamine]: the half-inhibitory concentration (IC50) is 500 to 1000 nM.

Consider `Nc1ccc(-c2ccccc2OC2CC2)c(N)n1` [Compound 48, 3-(2-Cyclopropoxy-phenyl)-pyridine-2,6-diamine], for which the 50% inhibitory concentration (IC50) was in the range of 100 to 500 nM.

As for `Nc1ccc(-c2ccccc2Cc2ccccc2)c(N)n1` [Compound 44, 3-(2-Benzyl-phenyl)-pyridine-2,6-diamine], the 50% inhibitory concentration (IC50) lay in the range of 100 to 500 nM.

Turning to `COc1ccncc1-c1ccc(N)nc1N` [Compound 88, 3-(4-methoxy-3-pyridyl)pyridine-2,6-diamine], the IC50 is > 1000 nM.

In the case of `Nc1ccc(-c2ccccc2OC(F)(F)F)c(N)n1` [Compound 2c, 3-(2-(trifluoromethoxy)phenyl) pyridine-2,6-diamine], the concentration for half-maximal inhibition (IC50) is 500 to 1000 nM.

For the molecule `CCc1nc(N)ccc1-c1cccc(Cl)c1C` [Compound 29, 5-(3-chloro-2-methyl-phenyl)-6-ethyl-pyridin-2-ylamine], the IC50 lay in the range of 100 to 500 nM.

As for `Nc1ccc(-c2cc(Cl)ccc2C2CC2)c(N)n1` [Compound 55, 3-(5-Chloro-2-cyclopropyl-phenyl)-pyridine-2,6-diamine], the IC50 lay in the range of 100 to 500 nM.

For the molecule `COc1cccc(OC(C)C)c1-c1ccc(N)nc1N` [Compound 39, 3-(2-Isopropoxy-6-methoxy-phenyl)-pyridine-2,6-diamine], the half-inhibitory concentration (IC50) was > 1000 nM.

On to `Nc1ccc(-c2ccccc2C2CC2)c(N)n1` [Compound 42, 3-(2-Cyclopropyl-phenyl)-pyridine-2,6-diamine], for which the 50% inhibitory concentration (IC50) is < 100 nM.

Take `Nc1ccc(-c2ccccc2)c(N)n1` [Compound 1a, 3-phenylpyridine-2,6-diamine]: the half-maximal inhibitory concentration (IC50) is > 1000 nM.

In the case of `Nc1ccc(-c2ccccc2Oc2ccccc2)c(N)n1` [Compound 43, 3-(2-Phenoxy-phenyl)-pyridine-2,6-diamine], the IC50 lay in the range of 100 to 500 nM.

As for `CN(C)c1ccccc1-c1ccc(N)nc1N` [Compound 61, 3-(2-Dimethylamino-phenyl)-pyridine-2,6-diamine], the IC50 is 100 to 500 nM.
